For `CCCCn1c(=O)n(Cc2ccccc2)c(=O)c2[nH]c(Cc3ccc(N4C(=O)CCC4=O)cc3)nc21` [Example 65, 1-Benzyl-3-butyl-8-[4-(2,5-dioxo-pyrrolidin-1-yl)-benzyl]-3,7-dihydro-purine-2,6-dione], the melting point lay within 208 to 212 °C.

The record behind these values is patent US7135475B2, “Amide substituted xanthine derivatives” (Hoffmann-La Roche Inc., priority 2002, dated 2006).
